Results: US4820834A, “Benzodiazepine analogs” (priority 1987, dated 1989)
Where two headings read alike, the source gives them in different places.

Key:
CCK receptor (pancreas) = biological target: T1, CCK receptor (pancreas) (Rattus norvegicus, UniProt P30551); assay: CCK Receptor Binding (Pancreas): inhibition of ^125 I-CCK-33 binding; design: species or system Male Sprague-Dawley rats; details: rat pancreas membranes, ^125 I-CCK-33, 37° C., 30 minutes
T1 construct: The whole pancreas was dissected free of fat tissue and was homogenized; from tissue; host or cells: rat pancreas membranes (Sprague-Dawley)
T1 sequence (P30551 1-444): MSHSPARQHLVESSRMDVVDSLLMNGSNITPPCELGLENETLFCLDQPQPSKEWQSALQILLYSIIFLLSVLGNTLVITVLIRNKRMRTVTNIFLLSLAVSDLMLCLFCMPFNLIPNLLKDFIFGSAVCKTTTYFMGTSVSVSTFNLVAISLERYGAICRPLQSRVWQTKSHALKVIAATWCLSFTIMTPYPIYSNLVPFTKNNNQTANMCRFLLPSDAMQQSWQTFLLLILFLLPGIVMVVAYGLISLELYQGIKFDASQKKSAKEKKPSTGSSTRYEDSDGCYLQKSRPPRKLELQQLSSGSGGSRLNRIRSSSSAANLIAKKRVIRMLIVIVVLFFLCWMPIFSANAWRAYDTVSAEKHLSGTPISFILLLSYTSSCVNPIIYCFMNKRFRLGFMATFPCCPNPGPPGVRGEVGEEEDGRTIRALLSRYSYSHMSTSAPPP
Procedure: 1. CCK Receptor Binding (Pancreas)
CCK-33 was radiolabeled with ^125 I-Bolton Hunter reagent (2000 Ci/mmole) as described by Sankara et al. (J. Biol. Chem. 254: 9349-9351, 1979). Receptor binding was performed according to Innis and Snyder (Proc. Natl. Acad. Sci. 77: 6917-6921, 1980) with the minor modification of adding the additional protease inhibitors, phenylmethane sulfonyl fluoride and o-phenanthroline.
Male Sprague-Dawley rats (200-350 g) were sacrificed by decapitation. The whole pancreas was dissected free of fat tissue and was homogenized in 20 volumes of ice-cold 50 mM, Tris HCl (pH 7.7 at 25° C.) with a Brinkmann Polytron PT 10. The homogenates were centrifuged at 48,000 g for 10 min. Pellets were resuspended in Tris Buffer, centrifuged as above and resuspended in 200 volumes of binding assay buffer (50 mM Tris HCl, pH 7.7 at 25° C., 5 mM dithiothrietol, 0.1 mM bacitracin, 1.2 mM phenylmethane sulfonyl fluoride and 0.5 mM o-phenanthroline). […] All assays were run in duplicate or triplicate. The reaction mixtures were incubated at 37° C. for 30 minutes and centrifuged in a Beckman Microfuge (4 minutes) immediately after adding 1 ml of ice-cold incubation buffer. The supernatant was aspirated and discarded, pellets were counted with a Beckman gamma 5000. For Scatchard analysis (Ann. N.Y. Acad. Sci. 51: 660, 1949), ^125 I-CCK-33 was progressively diluted with increasing concentrations of CCK-33.

[1] = biological target: T2, CCK receptor (brain, cerebral cortex) (Cavia porcellus, UniProt H0VZC5); assay: biochemical; assay type: binding, Male Hartley guinea pigs; details: guinea pig cerebral cortex, ^125 I-CCK-33, 25° C., 2 hours
T2 construct: Cerebral cortex was dissected and used as a receptor source; from tissue; host or cells: guinea pig cerebral cortex membranes (male Hartley)
T2 sequence (H0VZC5 1-426): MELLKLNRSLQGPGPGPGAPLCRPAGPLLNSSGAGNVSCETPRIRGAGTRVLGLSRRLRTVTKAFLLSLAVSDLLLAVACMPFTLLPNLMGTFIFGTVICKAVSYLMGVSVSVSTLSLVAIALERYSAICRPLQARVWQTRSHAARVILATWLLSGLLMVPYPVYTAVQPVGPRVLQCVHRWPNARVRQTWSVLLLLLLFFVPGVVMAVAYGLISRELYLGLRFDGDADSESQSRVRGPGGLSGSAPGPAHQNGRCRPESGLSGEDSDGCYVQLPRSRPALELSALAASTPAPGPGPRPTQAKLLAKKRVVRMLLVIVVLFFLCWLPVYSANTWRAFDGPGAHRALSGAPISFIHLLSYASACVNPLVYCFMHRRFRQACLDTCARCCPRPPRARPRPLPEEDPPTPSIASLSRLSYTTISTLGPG
Summary of the method: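 Guinea pig cerebral cortex homogenate as receptor source, with radiolabeled CCK-33 in HEPES buffer containing MgCl2, bacitracin, EGTA and 0.4% BSA. Incubation 2 h at 25°C; bound ligand pelleted by centrifugation and gamma-counted.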

[2] = biological target: T3, Gastrin receptor (gastric glands) (Cavia porcellus, UniProt H0VZC5); assay: Gastrin Receptor Binding in Guinea Pig Gastric Glands; design: species or system guinea pig (male Hartley); details: 25° C., 30 minutes
T3 construct: The washed guinea pig gastric glands prepared as above were resuspended; from tissue; host or cells: guinea pig gastric mucosal glands (male Hartley)
T3 sequence (H0VZC5 1-426): T2 sequence (H0VZC5 1-426)

[3] = read-out: IC50 ^125 I-CCK Pancreas
[4] = read-out: IC50 ^125 I-CCK Brain
[5] = ^125 I-gastrin, read-out: IC50 ^125 I-Gastrin Gastric Glands
[6] = IC50 ^125 I-Gastrin Gastric Glands

Compound	IC50 (CCK receptor (pancreas); [3])	IC50 [1, 4]	IC50 [2, 5]	IC50 (CCK receptor (pancreas); IC50 ^125 I-CCK Pancreas)	IC50 ([1]; IC50 ^125 I-CCK Brain)	IC50 [2, 6]
1-(2-Cyanoethyl)-1,3-dihydro-5-(2-fluorophenyl)-3(R)-(3'-indolyl)methyl-2H- 1,4-benzodiazepin-2-one (A, 85%) and 1-(2-cyanoethyl)-1,3-dihydro-5-(2-fluorophenyl)-3(R)-[1'-(2-cyanoethyl)-3'-indolyl]-methyl-2H-1,4-benzodiazpin-2-one (B, 15%) [Example 102]	0.7 µM	30 µM	12.8 µM			
CC(C)(C)OC(=O)N[C@@H](Cc1c[nH]c2ccccc12)C(=O)NC1N=C(c2ccccc2)c2ccccc2NC1=O (mixture of isomers) [Example 77, 3(RS)-(Boc-L-tryptophanyl)amino-1,3-dihydro-5-phenyl-2H-1,4-benzodiazepin-2-one]				6 µM	20 µM	250 µM
CC(C)(C)OC(=O)N[C@H](Cc1c[nH]c2ccccc12)C(=O)NC1N=C(c2ccccc2)c2ccccc2NC1=O (mixture of isomers) [Example 96, 3(RS)-(BOC-D-tryptophanyl)amino-1,3-dihydro-5-phenyl-2H-1,4-benzodiazepin-2-one]				17 µM	> 100 µM	500 µM
CN1C(=O)C(C(O)c2c[nH]c3ccccc23)N=C(c2ccccc2)c2ccccc21 (racemic) [Example 47, 1,3-Dihydro-3(RS)-[1-hydroxy-1-(3'-indolyl)]methyl-1-methyl-5-phenyl-2H-1,4-benzodiazepin-2-one]		40 µM	24 µM	24 µM		
CN1C(=O)C(C(=O)c2ccsc2)N=C(c2ccccc2)c2ccccc21 (racemic) [Example 48, 1,3-Dihydro-1-methyl-5-phenyl-3-(RS)-(3-thienoyl)-2H-1,4-benzodiazepin-2-one]		33 µM	8.4 µM	54 µM		
O=C1Nc2ccc(Cl)cc2C(c2ccccc2)N[C@@H]1Cc1c[nH]c2ccccc12 (stereo partly drawn) [Example 25, 7-Chloro-1,3,4,5-tetrahydro-3(R)-(3'-indolyl)methyl-5-phenyl-2H-1,4-benzodiazepin-2-one]	12 µM	> 100 µM				
O=C1Nc2ccc(Cl)cc2C(c2ccccc2)N[C@H]1Cc1c[nH]c2ccccc12 (stereo partly drawn) [Example 26, 7-Chloro-1,3,4,5-tetrahydro-3(S)-(3'-indolyl)methyl-5-phenyl-2H-1,4-benzodiazepin-2-one]	75 µM	> 100 µM				
CN1C(=O)[C@@H](Cc2cn(C)c3ccccc23)N(C(=O)c2ccc(Cl)cc2)C(c2ccccc2F)c2ccccc21 (stereo partly drawn) [Example 27a, 4-(p-Chlorobenzoyl)-5-(2-fluorophenyl)-3(R)-[3'-(1'-methylindolyl)-methyl]-1-methyl-1,3,4,5-tetrahydro-2H-1,4-benzodiazepin-2-one]	> 100 µM	> 100 µM				
CC(=O)N1C(c2ccccc2F)c2ccccc2N(C)C(=O)[C@H]1Cc1cn(C)c2ccccc12 (stereo partly drawn) [Example 27b, 4-acetyl-5-(2-fluorophenyl)-3(R)-[3'-(1'-methylindolyl)-methyl]-1-methyl-1,3,4,5-tetrahydro-2H-1,4-benzodiazepin-2-one]	100 µM	> 100 µM				
O=C1Nc2ccc(Cl)cc2C(c2ccccc2Cl)=N[C@@H]1Cc1c[nH]c2ccccc12 [Example 28, 7-Chloro-5-(2-chlorophenyl)-1,3-dihydro-3(R)-(3'-indolyl)methyl-2H-1,4-benzodiazepin-2-one]				5 µM	> 100 µM	
O=C1[C@@H](Cc2c[nH]c3ccccc23)N=C(c2ccccc2)c2cc(Cl)ccc2N1Cc1ccccc1 [Example 30, 1-Benzyl-7-chloro-1,3-dihydro-3(R)-(3'-indolyl) methyl-5-phenyl-2H-1,4-benzodiazepin-2-one]				> 100 µM	> 100 µM	
CN1C(=O)[C@@H](Cc2c[nH]c3ccccc23)N=C(c2ccccc2)c2cc(Cl)ccc21 [Example 31, 7-Chloro-1,3-Dihydro-3(R)-(3'-indolyl)methyl-1-methyl-5-phenyl-2H-1,4-benzodiazepin-2-one]				1.4 µM	> 100 µM	
O=C1[C@H](Cc2c[nH]c3ccccc23)N=C(c2ccccc2)c2cc(Cl)ccc2N1Cc1ccccc1 [Example 33, 1-Benzyl-7-chloro-1,3-dihydro-3(S)-(3'-indolyl) methyl-5-phenyl-2H-1,4-benzodiazepin-2-one]				> 100 µM	> 100 µM	
S=C1Nc2ccc(Cl)cc2C(c2ccccc2)=N[C@@H]1Cc1c[nH]c2ccccc12 [Example 34, 7-Chloro-1,3-dihydro-3(R)-(3'-indolyl)methyl-5-phenyl-2H-1,4-benzodiazepin-2-thione]				4.5 µM	> 100 µM	
CCOC(=O)CN1C(=O)[C@@H](Cc2c[nH]c3ccccc23)N=C(c2ccccc2F)c2ccccc21 [Example 42, 1,3-Dihydro-1-(ethoxycarbonylmethyl)-5-(2-fluorophenyl)-3(R)-(3'-indolyl)methyl-2H-1,4-benzodiazepin-2-one]				8.3 µM	> 100 µM	
CN1C(=O)[C@@H](Cc2cn(Cc3ccccc3)c3ccccc23)N=C(c2ccccc2)c2cc(Cl)ccc21 [Example 46, 7-Chloro-1,3-dihydro-3(R)-[3'(1'-benzylindolyl)methyl]1-methyl-5-phenyl-2H-1,4-benzodiazepin-2-one]				> 100 µM	> 100 µM	
CCCCCc1ccc(C(=O)N[C@H]2N=C(c3ccccc3)c3ccccc3N(C)C2=O)cc1 [Example 201]	0.25 µM		> 100 µM			
CCCCCc1ccc(C(=O)N[C@@H]2N=C(c3ccccc3)c3ccccc3N(C)C2=O)cc1 [Example 206, (R)-N-(2,3-Dihydro-1-methyl-2-oxo-5-phenyl-1H-1,4-benzodiazepin-3-yl)-4-pentylbenzamide]	12 µM		> 100 µM			
CN1CC(CC2N=C(c3ccccc3)c3ccccc3N(C)C2=O)c2ccccc21 (stereo not shown) [Example 211, 3-((2,3-Dihydro-1-methyl-1H-indol-3-yl)methyl)-1,3-dihydro-1-methyl-5-phenyl-2H-1,4-benzodiazepin-2-one]				13 µM	93 µM	
CN1C(=O)C(NC(=O)c2ccc(C(F)(F)F)cc2)N=C(c2ccccc2F)c2ccccc21 (stereo not shown) [Example 218, N-(5-(2-Fluorophenyl)-2,3-dihydro-1-methyl-2-oxo-1H-1,4-benzodiazepin-3-yl)-4-(trifluoromethyl)-benzamide]			1.8 µM	0.0026 µM		
Cc1cccc(NC(=O)NC2N=C(c3ccccc3)c3ccccc3N(C)C2=O)c1 (stereo not shown) [Example 263, N-(2,3-Dihydro-1-methyl-2-oxo-5-phenyl-1H-1,4-benzodiazepin-3-yl)-N'-(3-methylphenyl)-urea]	0.0081 µM		0.0031 µM			
Cc1cccc(NC(=O)N[C@@H]2N=C(c3ccccc3)c3ccccc3N(C)C2=O)c1 [Example 281, (R)-N-(2,3-Dihydro-1-methyl-2-oxo-5-phenyl-1H-1,4-benzodiazepin-3-yl)-N'-(3-methylphenyl)-urea]			0.00066 µM	1.4 µM		
